Source: patent US9365604B2, “Oligomer-nucleoside phosphate conjugates” (NEKTAR THERAPEUTICS, priority 2007, dated 2016)
One block for each compound: values may come before it.

Columns and labels:
[1] = system: DU145; assay: Sulforhodamine B (SRB) growth inhibition assay; format: cell-based, Human
Experimental: (§1) The aim was to determine the GI50 values for PEG-floxuridine conjugates against a panel of cell lines, and based on previous data from Xenograft studies. […] The test articles were solubilized in dimethylsulfoxide and were tested at four different molar (M) concentrations; 10^−4, 10^−5, 10^−6, M. GI50 (the concentration needed to reduce the growth of treated cells to half that of untreated control cells) was calculated for each condition ([(Ti−Tz)/(C-Tz)]×100=50, where Ti, Tz, and C refer to absorbance values obtained from each tested concentration, time zero, and control treatment, respectively).
as §1, with “The objective” for “The aim”, “the IC50” for “the GI50”, “for PEG-gemcitabine” for “for PEG-floxuridine”, “in dimethyl sulfoxide” for “in dimethylsulfoxide”, “10^−6, 10^−7” for “10^−6,”, “condition ([(Ti−Tz)/(C−Tz)]×100=50,” for “condition ([(Ti−Tz)/(C-Tz)]×100=50,”

[2] = system: NCI/ADR-RES; assay: Sulforhodamine B (SRB) growth inhibition assay; format: cell-based, Human; settings: cells exposed for 24 h, read-out: GI50 values (μM) NCI/ADR-RES
Experimental: (§2) In Vitro Screening of PEG-Gemcitabine Monophosphate in Selected Human Cancer Cell Lines
(§3) The aim was to determine the GI50 values for PEG-floxuridine conjugates against a panel of cell lines, and based on previous data from Xenograft studies. The cells were exposed for 24 h, and cell viability assessed by using the Sulphorhodamine (SRB) assay. The test articles were solubilized in dimethylsulfoxide and were tested at four different molar (M) concentrations; 10^−4, 10^−5, 10^−6, M. GI50 (the concentration needed to reduce the growth of treated cells to half that of untreated control cells) was calculated for each condition ([(Ti−Tz)/(C-Tz)]×100=50, where Ti, Tz, and C refer to absorbance values obtained from each tested concentration, time zero, and control treatment, respectively).
as §3, with “The objective” for “The aim”, “the IC50” for “the GI50”, “for PEG-gemcitabine” for “for PEG-floxuridine”, “in dimethyl sulfoxide” for “in dimethylsulfoxide”, “10^−6, 10^−7” for “10^−6,”, “condition ([(Ti−Tz)/(C−Tz)]×100=50,” for “condition ([(Ti−Tz)/(C-Tz)]×100=50,”

[3] = system: HT-29; assay: In vitro cytotoxicity assay (CellTiter-Glo); format: cell-based
Experimental: (§4) The objective of these studies were to determine the IC50 values for PEG-floxuridine conjugates against floxuridine-resistant cell lines based on data from previous Xenograft studies. The cells were exposed for 72 h, and cell viability assessed by using the CellTiter-Glo assay.
(§5) The objective of these studies was to determine the IC50 values for PEG-gemcitabine conjugates against gemcitabine-resistant cell lines based on data from previous Xenograft studies. The cells were exposed for 72 h, and cell viability assessed by using the CellTiter-Glo assay.

[4] = system: MIA PaCa-2; assay: In vitro cytotoxicity assay (CellTiter-Glo); format: cell-based
Experimental: as §4, §5

[5] = system: HCT-116; assay: In vitro cytotoxicity assay (CellTiter-Glo); format: cell-based
Experimental: as §4, §5

[6] = system: MDCK cells
Text: (§6) Bi-Directional Permeability of PEG-Floxuridine Conjugates in Caco-2 and MDCK Cells

[7] = system: CAKI-1; assay: In vitro cytotoxicity assay (CellTiter-Glo); format: cell-based
[8] = system: Caco-2 cells
Text: as §6

[9] = system: Hop62; assay: Sulforhodamine B (SRB) growth inhibition assay; format: cell-based, Human
Experimental: as §2, §1
as §1, with “The objective” for “The aim”, “the IC50” for “the GI50”, “for PEG-gemcitabine” for “for PEG-floxuridine”, “in dimethyl sulfoxide” for “in dimethylsulfoxide”, “10^−6, 10^−7” for “10^−6,”, “condition ([(Ti−Tz)/(C−Tz)]×100=50,” for “condition ([(Ti−Tz)/(C-Tz)]×100=50,”

[10] = system: MCF7; assay: Sulforhodamine B (SRB) growth inhibition assay; format: cell-based, Human
Experimental: as §2, §1
as §1, with “The objective” for “The aim”, “the IC50” for “the GI50”, “for PEG-gemcitabine” for “for PEG-floxuridine”, “in dimethyl sulfoxide” for “in dimethylsulfoxide”, “10^−6, 10^−7” for “10^−6,”, “condition ([(Ti−Tz)/(C−Tz)]×100=50,” for “condition ([(Ti−Tz)/(C-Tz)]×100=50,”

[11] = system: COLO205; assay: Sulforhodamine B (SRB) growth inhibition assay; format: cell-based, Human; settings: COLO205; SRB assay, cells exposed for 24 h; read-out: GI50 values (μM) COLO205
Experimental: as §2, §1
as §1, with “The objective” for “The aim”, “the IC50” for “the GI50”, “for PEG-gemcitabine” for “for PEG-floxuridine”, “in dimethyl sulfoxide” for “in dimethylsulfoxide”, “10^−6, 10^−7” for “10^−6,”, “condition ([(Ti−Tz)/(C−Tz)]×100=50,” for “condition ([(Ti−Tz)/(C-Tz)]×100=50,”

[12] = system: HCT15; assay: Sulforhodamine B (SRB) growth inhibition assay; format: cell-based, Human; settings: SRB assay, cells exposed for 24 h, read-out: GI50 values (μM) HCT15
Experimental: as §2, §1
as §1, with “The objective” for “The aim”, “the IC50” for “the GI50”, “for PEG-gemcitabine” for “for PEG-floxuridine”, “in dimethyl sulfoxide” for “in dimethylsulfoxide”, “10^−6, 10^−7” for “10^−6,”, “condition ([(Ti−Tz)/(C−Tz)]×100=50,” for “condition ([(Ti−Tz)/(C-Tz)]×100=50,”

[13] = system: A2780; assay: Sulforhodamine B (SRB) growth inhibition assay; format: cell-based, Human
Experimental: as §2, §1
as §1, with “The objective” for “The aim”, “the IC50” for “the GI50”, “for PEG-gemcitabine” for “for PEG-floxuridine”, “in dimethyl sulfoxide” for “in dimethylsulfoxide”, “10^−6, 10^−7” for “10^−6,”, “condition ([(Ti−Tz)/(C−Tz)]×100=50,” for “condition ([(Ti−Tz)/(C-Tz)]×100=50,”

[14] = system: HT29; assay: Sulforhodamine B (SRB) growth inhibition assay; format: cell-based, Human
Experimental: as §2, §1
as §1, with “The objective” for “The aim”, “the IC50” for “the GI50”, “for PEG-gemcitabine” for “for PEG-floxuridine”, “in dimethyl sulfoxide” for “in dimethylsulfoxide”, “10^−6, 10^−7” for “10^−6,”, “condition ([(Ti−Tz)/(C−Tz)]×100=50,” for “condition ([(Ti−Tz)/(C-Tz)]×100=50,”

[15] = system: PANC-1; settings: Zajchowski et al. 2005; cited from earlier work
[16] = GI50 of conjugate vs floxuridine

ratio vs flox (GI50) DU145 [1, 16]: 0.005 | GI50 ([1]; SRB assay, cells exposed for 24 h, read-out: GI50 values (μM) DU145): 0.12 µM | Papp A -> B [6]: <0.06 10^−6 cm/s | Papp B -> A [6]: <0.07 10^−6 cm/s | Significant efflux [6]: No | percent recovery A -> B [6]: 98% | percent recovery B -> A [6]: 98% | Papp A -> B [8]: <0.19 10^−6 cm/s | Papp B -> A [8]: <0.25 10^−6 cm/s | Significant efflux [8]: No | percent recovery A -> B [8]: 96% | percent recovery B -> A [8]: 94% | ratio vs flox (GI50) MCF7 [10, 16]: 0.7 | GI50 ([10]; SRB assay, cells exposed for 24 h, read-out: GI50 values (μM) MCF7): 0.11 µM | GI50 [11]: 1.8 µM | GI50 [12]: 32 µM | ratio vs flox (GI50) A2780 [13, 16]: 32 | GI50 ([13]; SRB assay, cells exposed for 24 h, read-out: GI50 values (μM) A2780): 2.1 µM | ratio vs flox (GI50) HT29 [14, 16]: 4 | GI50 ([14]; SRB assay, cells exposed for 24 h, read-out: GI50 values (μM) HT29): > 100 µM
SMILES: COCCOCCOCCOP(=O)(O)OC[C@H]1O[C@@H](n2cc(F)c(=O)[nH]c2=O)C[C@@H]1O [Floxuridine Mono (mPEG3), 5′-floxuridine methoxy tri(ethylene glycol) phosphate]
GI50 [2]: < 0.1 µM | Ratio vs floxuridine (IC50) HT-29 [3]: 1 | IC50 ([3]; 72 h exposure, CellTiter-Glo): 87 nM | Ratio vs floxuridine (IC50) MIA PaCa-2 [4]: 1 | IC50 ([4]; 72 h exposure, CellTiter-Glo): 64 nM | Ratio vs floxuridine (IC50) HCT-116 [5]: 2 | IC50 ([5]; 72 h exposure, CellTiter-Glo): 56 nM | Ratio vs floxuridine (IC50) CAKI-1 [7]: 1 | IC50 ([7]; 72 h exposure, CellTiter-Glo): 145 nM | ratio vs flox (GI50) Hop62 [9, 16]: 417 | GI50 ([9]; SRB assay, cells exposed for 24 h, read-out: GI50 values (μM) Hop62): > 100 µM

SMILES: Nc1ccn([C@@H]2S[C@H](CO)[C@@H](O)[C@@H]2F)c(=O)n1 [4′-thio-FAC]
resistance of PANC-1 in vitro (shown previously) [15]: resistant
